± gives the expanded uncertainty stated by the source.
Assay: molar heat capacity at constant pressure
Conditions: 101.33 kPa, Crystal, Vacuum adiabatic calorimetry

CCCC(=O)OC [methyl butanoate]
molar heat capacity at constant pressure (5 K): 0.356 ± 0.016 J/K/mol
molar heat capacity at constant pressure (7.61 K): 1.24 ± 0.023 J/K/mol
molar heat capacity at constant pressure (7.88 K): 1.381 ± 0.024 J/K/mol
molar heat capacity at constant pressure (8.13 K): 1.514 ± 0.025 J/K/mol
molar heat capacity at constant pressure (8.39 K): 1.657 ± 0.028 J/K/mol
molar heat capacity at constant pressure (8.65 K): 1.805 ± 0.028 J/K/mol
molar heat capacity at constant pressure (8.9 K): 2.108 ± 0.031 J/K/mol
molar heat capacity at constant pressure (9.16 K): 2.207 ± 0.031 J/K/mol
molar heat capacity at constant pressure (9.41 K): 2.466 ± 0.032 J/K/mol
molar heat capacity at constant pressure (9.66 K): 2.549 ± 0.033 J/K/mol
molar heat capacity at constant pressure (9.91 K): 2.719 ± 0.034 J/K/mol
molar heat capacity at constant pressure (10 K): 2.828 ± 0.035 J/K/mol
molar heat capacity at constant pressure (10.22 K): 2.894 ± 0.036 J/K/mol
molar heat capacity at constant pressure (10.6 K): 3.3 ± 0.04 J/K/mol
molar heat capacity at constant pressure (10.98 K): 3.648 ± 0.043 J/K/mol
molar heat capacity at constant pressure (11.35 K): 4.064 ± 0.045 J/K/mol
molar heat capacity at constant pressure (11.73 K): 4.38 ± 0.047 J/K/mol
molar heat capacity at constant pressure (12.13 K): 4.735 ± 0.049 J/K/mol
molar heat capacity at constant pressure (12.5 K): 5.111 ± 0.051 J/K/mol
molar heat capacity at constant pressure (12.86 K): 5.563 ± 0.054 J/K/mol
molar heat capacity at constant pressure (13.23 K): 5.907 ± 0.056 J/K/mol
molar heat capacity at constant pressure (13.6 K): 6.278 ± 0.058 J/K/mol
molar heat capacity at constant pressure (13.96 K): 6.646 ± 0.06 J/K/mol
molar heat capacity at constant pressure (14.33 K): 7.063 ± 0.063 J/K/mol
molar heat capacity at constant pressure (14.68 K): 7.551 ± 0.065 J/K/mol
molar heat capacity at constant pressure (15 K): 7.893 ± 0.067 J/K/mol
molar heat capacity at constant pressure (15.04 K): 7.92 ± 0.068 J/K/mol
molar heat capacity at constant pressure (15.4 K): 8.318 ± 0.07 J/K/mol
molar heat capacity at constant pressure (15.76 K): 8.825 ± 0.072 J/K/mol
molar heat capacity at constant pressure (16.11 K): 9.332 ± 0.075 J/K/mol
molar heat capacity at constant pressure (16.47 K): 9.652 ± 0.076 J/K/mol
molar heat capacity at constant pressure (16.82 K): 10.21 ± 0.078 J/K/mol
molar heat capacity at constant pressure (17.17 K): 10.66 ± 0.08 J/K/mol
molar heat capacity at constant pressure (17.53 K): 11.07 ± 0.081 J/K/mol
molar heat capacity at constant pressure (17.88 K): 11.41 ± 0.084 J/K/mol
molar heat capacity at constant pressure (18.23 K): 11.84 ± 0.085 J/K/mol
molar heat capacity at constant pressure (18.58 K): 12.53 ± 0.089 J/K/mol
molar heat capacity at constant pressure (18.93 K): 12.9 ± 0.091 J/K/mol
molar heat capacity at constant pressure (19.28 K): 13.53 ± 0.092 J/K/mol
molar heat capacity at constant pressure (19.63 K): 13.98 ± 0.094 J/K/mol
molar heat capacity at constant pressure (19.98 K): 14.42 ± 0.094 J/K/mol
molar heat capacity at constant pressure (20 K): 14.36 ± 0.094 J/K/mol
molar heat capacity at constant pressure (20.62 K): 15.2 ± 0.096 J/K/mol
molar heat capacity at constant pressure (21.39 K): 16.16 ± 0.099 J/K/mol
molar heat capacity at constant pressure (22.15 K): 17.23 ± 0.1 J/K/mol
molar heat capacity at constant pressure (22.91 K): 18.29 ± 0.1 J/K/mol
molar heat capacity at constant pressure (23.67 K): 19.35 ± 0.11 J/K/mol
molar heat capacity at constant pressure (24.44 K): 20.59 ± 0.11 J/K/mol
molar heat capacity at constant pressure (25 K): 21.25 ± 0.11 J/K/mol
molar heat capacity at constant pressure (25.2 K): 21.61 ± 0.11 J/K/mol
molar heat capacity at constant pressure (25.97 K): 22.55 ± 0.11 J/K/mol
molar heat capacity at constant pressure (26.73 K): 23.64 ± 0.11 J/K/mol
molar heat capacity at constant pressure (27.49 K): 24.49 ± 0.11 J/K/mol
molar heat capacity at constant pressure (28.25 K): 25.82 ± 0.11 J/K/mol
molar heat capacity at constant pressure (29.01 K): 26.93 ± 0.11 J/K/mol
molar heat capacity at constant pressure (29.77 K): 27.91 ± 0.11 J/K/mol
molar heat capacity at constant pressure (30 K): 28.14 ± 0.1 J/K/mol
molar heat capacity at constant pressure (30.53 K): 29.04 ± 0.1 J/K/mol
molar heat capacity at constant pressure (31.29 K): 29.6 ± 0.1 J/K/mol
molar heat capacity at constant pressure (32.82 K): 31.82 ± 0.11 J/K/mol
molar heat capacity at constant pressure (33.59 K): 32.79 ± 0.11 J/K/mol
molar heat capacity at constant pressure (34.35 K): 33.88 ± 0.11 J/K/mol
molar heat capacity at constant pressure (35 K): 34.59 ± 0.11 J/K/mol
molar heat capacity at constant pressure (35.11 K): 34.58 ± 0.11 J/K/mol
molar heat capacity at constant pressure (35.86 K): 35.63 ± 0.12 J/K/mol
molar heat capacity at constant pressure (36.61 K): 36.63 ± 0.12 J/K/mol
molar heat capacity at constant pressure (37.37 K): 37.49 ± 0.12 J/K/mol
molar heat capacity at constant pressure (38.12 K): 38.33 ± 0.12 J/K/mol
molar heat capacity at constant pressure (38.88 K): 38.88 ± 0.12 J/K/mol
molar heat capacity at constant pressure (39.63 K): 39.87 ± 0.12 J/K/mol
molar heat capacity at constant pressure (40 K): 40.28 ± 0.12 J/K/mol
molar heat capacity at constant pressure (40.39 K): 40.69 ± 0.12 J/K/mol
molar heat capacity at constant pressure (41.14 K): 41.43 ± 0.12 J/K/mol
molar heat capacity at constant pressure (41.9 K): 42.12 ± 0.13 J/K/mol
molar heat capacity at constant pressure (42.65 K): 43.21 ± 0.13 J/K/mol
molar heat capacity at constant pressure (43.4 K): 44 ± 0.13 J/K/mol
molar heat capacity at constant pressure (44.16 K): 44.51 ± 0.13 J/K/mol
molar heat capacity at constant pressure (44.91 K): 45.66 ± 0.13 J/K/mol
molar heat capacity at constant pressure (45 K): 45.57 ± 0.13 J/K/mol
molar heat capacity at constant pressure (45.66 K): 46.29 ± 0.13 J/K/mol
molar heat capacity at constant pressure (46.41 K): 47.13 ± 0.14 J/K/mol
molar heat capacity at constant pressure (47.17 K): 47.63 ± 0.14 J/K/mol
molar heat capacity at constant pressure (47.92 K): 48.66 ± 0.14 J/K/mol
molar heat capacity at constant pressure (48.66 K): 49.52 ± 0.14 J/K/mol
molar heat capacity at constant pressure (49.41 K): 50.2 ± 0.14 J/K/mol
molar heat capacity at constant pressure (50 K): 50.77 ± 0.14 J/K/mol
molar heat capacity at constant pressure (50.16 K): 50.98 ± 0.14 J/K/mol
molar heat capacity at constant pressure (50.91 K): 51.69 ± 0.14 J/K/mol
molar heat capacity at constant pressure (51.66 K): 52.27 ± 0.15 J/K/mol
molar heat capacity at constant pressure (52.4 K): 53.16 ± 0.15 J/K/mol
molar heat capacity at constant pressure (53.15 K): 54.06 ± 0.15 J/K/mol
molar heat capacity at constant pressure (53.89 K): 54.63 ± 0.15 J/K/mol
molar heat capacity at constant pressure (54.64 K): 55.7 ± 0.15 J/K/mol
molar heat capacity at constant pressure (55 K): 55.94 ± 0.15 J/K/mol
molar heat capacity at constant pressure (55.38 K): 56.48 ± 0.15 J/K/mol
molar heat capacity at constant pressure (56.12 K): 57.16 ± 0.16 J/K/mol
molar heat capacity at constant pressure (56.87 K): 57.9 ± 0.16 J/K/mol
molar heat capacity at constant pressure (59.09 K): 60.08 ± 0.16 J/K/mol
molar heat capacity at constant pressure (59.84 K): 60.45 ± 0.16 J/K/mol
molar heat capacity at constant pressure (60 K): 60.87 ± 0.16 J/K/mol
molar heat capacity at constant pressure (60.58 K): 61.42 ± 0.16 J/K/mol
molar heat capacity at constant pressure (61.32 K): 62.07 ± 0.17 J/K/mol
molar heat capacity at constant pressure (62.06 K): 62.68 ± 0.17 J/K/mol
molar heat capacity at constant pressure (62.8 K): 63.44 ± 0.17 J/K/mol
molar heat capacity at constant pressure (63.54 K): 64.04 ± 0.17 J/K/mol
molar heat capacity at constant pressure (64.28 K): 64.72 ± 0.17 J/K/mol
molar heat capacity at constant pressure (65 K): 65.14 ± 0.17 J/K/mol
molar heat capacity at constant pressure (65.03 K): 65.05 ± 0.17 J/K/mol
molar heat capacity at constant pressure (65.77 K): 65.7 ± 0.17 J/K/mol
molar heat capacity at constant pressure (66.5 K): 66.39 ± 0.17 J/K/mol
molar heat capacity at constant pressure (67.24 K): 66.79 ± 0.17 J/K/mol
molar heat capacity at constant pressure (67.98 K): 67.34 ± 0.17 J/K/mol
molar heat capacity at constant pressure (68.72 K): 67.73 ± 0.18 J/K/mol
molar heat capacity at constant pressure (69.46 K): 68.24 ± 0.18 J/K/mol
molar heat capacity at constant pressure (70 K): 68.48 ± 0.18 J/K/mol
molar heat capacity at constant pressure (70.2 K): 68.47 ± 0.18 J/K/mol
molar heat capacity at constant pressure (71.09 K): 68.75 ± 0.18 J/K/mol
molar heat capacity at constant pressure (72.14 K): 69.62 ± 0.18 J/K/mol
molar heat capacity at constant pressure (73.19 K): 70.47 ± 0.18 J/K/mol
molar heat capacity at constant pressure (74.24 K): 70.88 ± 0.18 J/K/mol
molar heat capacity at constant pressure (75 K): 71.36 ± 0.18 J/K/mol
molar heat capacity at constant pressure (75.29 K): 71.51 ± 0.18 J/K/mol
molar heat capacity at constant pressure (76.34 K): 72.3 ± 0.18 J/K/mol
molar heat capacity at constant pressure (77.39 K): 72.87 ± 0.19 J/K/mol
molar heat capacity at constant pressure (78.44 K): 73.35 ± 0.19 J/K/mol
molar heat capacity at constant pressure (78.68 K): 72.62 ± 0.19 J/K/mol
molar heat capacity at constant pressure (79.48 K): 74.12 ± 0.19 J/K/mol
molar heat capacity at constant pressure (79.71 K): 73.82 ± 0.19 J/K/mol
molar heat capacity at constant pressure (80 K): 74.1 ± 0.19 J/K/mol
molar heat capacity at constant pressure (80.53 K): 74.83 ± 0.19 J/K/mol
molar heat capacity at constant pressure (80.74 K): 74.41 ± 0.19 J/K/mol
molar heat capacity at constant pressure (81.58 K): 75.43 ± 0.19 J/K/mol
molar heat capacity at constant pressure (81.76 K): 74.8 ± 0.19 J/K/mol
molar heat capacity at constant pressure (82.62 K): 75.67 ± 0.19 J/K/mol
molar heat capacity at constant pressure (82.79 K): 75.48 ± 0.19 J/K/mol
molar heat capacity at constant pressure (83.67 K): 76.36 ± 0.19 J/K/mol
molar heat capacity at constant pressure (83.81 K): 75.48 ± 0.19 J/K/mol
molar heat capacity at constant pressure (84.83 K): 76.86 ± 0.2 J/K/mol
molar heat capacity at constant pressure (85 K): 76.9 ± 0.19 J/K/mol
molar heat capacity at constant pressure (85.85 K): 77.51 ± 0.2 J/K/mol
molar heat capacity at constant pressure (86.87 K): 77.78 ± 0.2 J/K/mol
molar heat capacity at constant pressure (87.89 K): 78.68 ± 0.2 J/K/mol
molar heat capacity at constant pressure (88.91 K): 79.57 ± 0.2 J/K/mol
molar heat capacity at constant pressure (89.93 K): 79.99 ± 0.2 J/K/mol
molar heat capacity at constant pressure (90 K): 79.81 ± 0.28 J/K/mol
molar heat capacity at constant pressure (90.96 K): 80.42 ± 0.28 J/K/mol
molar heat capacity at constant pressure (91.97 K): 80.85 ± 0.28 J/K/mol
molar heat capacity at constant pressure (92.99 K): 81.43 ± 0.28 J/K/mol
molar heat capacity at constant pressure (94.01 K): 82.02 ± 0.28 J/K/mol
molar heat capacity at constant pressure (95 K): 82.75 ± 0.28 J/K/mol
molar heat capacity at constant pressure (95.03 K): 82.39 ± 0.28 J/K/mol
molar heat capacity at constant pressure (96.04 K): 83.43 ± 0.28 J/K/mol
molar heat capacity at constant pressure (97.06 K): 84.19 ± 0.28 J/K/mol
molar heat capacity at constant pressure (98.07 K): 84.16 ± 0.28 J/K/mol
molar heat capacity at constant pressure (99.09 K): 84.89 ± 0.28 J/K/mol
molar heat capacity at constant pressure (100 K): 85.29 ± 0.28 J/K/mol
molar heat capacity at constant pressure (100.1 K): 85.45 ± 0.29 J/K/mol
molar heat capacity at constant pressure (101.62 K): 86.18 ± 0.29 J/K/mol
molar heat capacity at constant pressure (103.64 K): 87.3 ± 0.29 J/K/mol
molar heat capacity at constant pressure (105.66 K): 88.28 ± 0.29 J/K/mol
molar heat capacity at constant pressure (107.68 K): 89.36 ± 0.29 J/K/mol
molar heat capacity at constant pressure (109.7 K): 90.17 ± 0.29 J/K/mol
molar heat capacity at constant pressure (110 K): 90.46 ± 0.29 J/K/mol
molar heat capacity at constant pressure (111.72 K): 91.08 ± 0.29 J/K/mol
molar heat capacity at constant pressure (113.73 K): 92.15 ± 0.29 J/K/mol
molar heat capacity at constant pressure (115.74 K): 93.34 ± 0.29 J/K/mol
molar heat capacity at constant pressure (117.75 K): 94.24 ± 0.29 J/K/mol
molar heat capacity at constant pressure (119.76 K): 95.16 ± 0.29 J/K/mol
molar heat capacity at constant pressure (120 K): 95.31 ± 0.29 J/K/mol
molar heat capacity at constant pressure (121.76 K): 96.24 ± 0.3 J/K/mol
molar heat capacity at constant pressure (123.77 K): 97.13 ± 0.3 J/K/mol
molar heat capacity at constant pressure (125.78 K): 98.02 ± 0.3 J/K/mol
molar heat capacity at constant pressure (127.78 K): 98.84 ± 0.3 J/K/mol
molar heat capacity at constant pressure (129.79 K): 99.75 ± 0.3 J/K/mol

Reference: the NIST ThermoML archive (doi:10.1016/j.jct.2011.10.001)
